In ChEMBL document CHEMBL4842358, “Design, synthesis and biological evaluation of sphingosine-1-phosphate receptor 2 antagonists as potent 5-FU-resistance reversal agents for the treatment of colorectal cancer” (Eur J Med Chem, 2021):
Calls of active or inactive are those of the source. The rule behind the calls is not given here.

Legend:
SW620/5-FU = experiment: Antitumour activity against human SW620/5-FU cells xenografted in athymic nude mouse assessed as inhibition of tumour growth at 1.08 mg/kg/day, iv administered for 24 days; assay type: functional; details: 576 h, time 24 day, read-out: TGI
Mus musculus [1] = experiment: Downregulation of DPD expression in liver of athymic nude mouse xenografted with human SW620/5-FU at 1.08 mg/kg/day, iv administered for 24 days in presence of 5-FU and measured on day 24 by Western blot assay; assay type: functional, organism-based; details: time 24.0 day
[2] = target: T1, Sphingosine 1-phosphate receptor 2 (Homo sapiens, UniProt O95136); experiment: Antagonist activity at S1PR2 in human SW620/5-FU cells assessed as reduction in dosage of 5-FU at 0.5 to 2.5 uM measured after 6 hrs by HPLC-UV analysis; assay type: functional, cell-based; details: filed as antagonist, dose 0.5-2.5 µM
[3] = target: T1, Sphingosine 1-phosphate receptor 2; experiment: Antagonist activity at S1PR2 in human HCT-116 cells overexpressing DPD assessed as downregulation of JMJD3 expression at 0.16 to 2.5 uM measured by western blot assay; assay type: functional, cell-based; details: filed as antagonist, dose 0.16-2.5 µM
[4] = target: T1, Sphingosine 1-phosphate receptor 2; experiment: Antagonist activity at S1PR2 in human SW620/5-FU cells assessed as downregulation of DPD expression by western blot analysis; assay type: functional, cell-based; details: filed as antagonist
[5] = Toxicity in athymic nude mouse xenografted with human SW620/5-FU cells assessed as histopathological changes in liver at 1.08 mg/kg/day, iv administered for 24 days in presence of 5-FU and measured on day 24 by immunohistochemistry; assay type: organism-based; details: in vivo, 576 h, time 24 day
[6] = target: T1, Sphingosine 1-phosphate receptor 2; experiment: Antagonist activity at S1PR2 in human HCT-116 cells overexpressing DPD assessed as downregulation of DPD expression by western blot analysis; assay type: functional, cell-based; details: filed as antagonist, dose 0.16-2.5 µM
[7] = target: T1, Sphingosine 1-phosphate receptor 2; experiment: Binding affinity to S1PR2 (unknown origin) assessed as dissociation constant measured for 60 secs by surface plasmon resonance assay
[8] = Downregulation of S1PR2 expression in human HCT-116 cells overexpressing DPD at 0.16 to 2.5 uM cells measured by western blot assay; assay type: ADME, cell-based; details: hct-116, 2.5 µM, dose 0.16-2.5 µM
[9] = Reversal of 5-FU resistance against human SW620/5-FU cells xenografted in athymic nude mouse assessed as potentiation of 5-FU induced antitumor activity by measuring inhibition of tumor growth at 1.08 mg/kg/day, iv administered for 24 days in presence of 5-FU (reference value: 18.54%); assay type: functional; details: 576 h, time 24 day, read-out: TGI
Mus musculus [10] = experiment: Downregulation of DPD expression in liver of athymic nude mouse xenografted with human SW620/5-FU at 1.08 mg/kg/day, iv administered for 24 days in presence of 5-FU and measured on day 24 by immunohistochemistry; assay type: functional, organism-based; details: time 24.0 day
[11] = Half life in Sprague-Dawley rat blood at 1 mg/kg, iv measured for 24 hrs by LC-MS/MS analysis; assay type: ADME, organism-based
[12] = Volume of distribution in Sprague-Dawley rat blood at 1 mg/kg, iv measured for 24 hrs by LC-MS/MS analysis; assay type: ADME, organism-based
[13] = Stability in rat liver microsomes assessed as parent compound remaining at 2 umol/L measured after 60 mins in presence of NADPH regenerating system by LC-MS/MS analysis; assay type: ADME, Microsome; details: dose 2 µmol/L, read-out: Stabilty
[14] = target: T1, Sphingosine 1-phosphate receptor 2; experiment: Antagonist activity at S1PR2 in human SW620/5-FU cells assessed as reduction of DPD-catalyzed 5-FU degradation by measuring intracellular 5-FU level at 2 uM measured after 6 hrs by HPLC-UV analysis; assay type: functional, cell-based; details: filed as antagonist
[15] = AUC (0 to t) in Sprague-Dawley rat plasma at 1 mg/kg, iv measured for 24 hrs by LC-MS/MS analysis; assay type: ADME, organism-based; parameters: dose 1 mg/kg, time 24 hrs
[16] = target: T1, Sphingosine 1-phosphate receptor 2; experiment: Antagonist activity at S1PR2 in human SW620/5-FU cells assessed as downregulation of JMJD3 expression at 0.16 to 2.5 uM measured by western blot assay; assay type: functional, cell-based; details: filed as antagonist, dose 0.16-2.5 µM
[17] = Half life in Sprague-Dawley rat plasma at 1 mg/kg, iv measured for 24 hrs by LC-MS/MS analysis; assay type: ADME, organism-based
[18] = target: T1, Sphingosine 1-phosphate receptor 2; experiment: Binding affinity to S1PR2 (unknown origin) assessed as association constant measured for 60 secs by surface plasmon resonance assay; details: filed as antagonist, time 60.0 sec
Mus musculus [19] = experiment: Downregulation of DPD expression in colon of athymic nude mouse xenografted with human SW620/5-FU cells at 1.08 mg/kg/day, iv administered for 24 days in presence of 5-FU and measured on day 24 by immunohistochemistry; assay type: functional, organism-based; details: time 24.0 day
NCM460 = experiment: Cytotoxicity against human NCM460 cells assessed as cell viability measured after 72 hrs in presence of 5-FU by MTT assay; assay type: cell-based; details: NCM460, 72 h
[20] = Mean residence time (0 to t) in Sprague-Dawley rat blood at 1 mg/kg, iv measured for 24 hrs by LC-MS/MS analysis; assay type: ADME, organism-based
[21] = Mean residence time (0 to infinity) in Sprague-Dawley rat plasma at 1 mg/kg, iv by LC-MS/MS analysis; assay type: ADME, organism-based
HCT-116 = experiment: Reversal of 5-FU resistance against human HCT-116 cells overexpressing DPD assessed as inhibition of cell proliferation measured after 72 hrs in presence of 5-FU by MTT assay; assay type: functional, cell-based; details: HCT-116, 72 h
[22] = AUC (0 to t) in Sprague-Dawley rat blood at 1 mg/kg, iv measured for 24 hrs by LC-MS/MS analysis; assay type: ADME, organism-based; parameters: time 24 hrs, dose 1 mg/kg
[23] = Ratio of drug level in Sprague-Dawley rat blood to plasma at 1 mg/kg, iv measured for 24 hrs by LC-MS/MS analysis; assay type: ADME, organism-based; details: blood and plasma
[24] = Clearance in Sprague-Dawley rat plasma at 1 mg/kg, iv measured for 24 hrs by LC-MS/MS analysis; assay type: ADME, organism-based
[25] = Volume of distribution in Sprague-Dawley rat plasma at 1 mg/kg, iv measured for 24 hrs by LC-MS/MS analysis; assay type: ADME, organism-based
[26] = target: T1, Sphingosine 1-phosphate receptor 2; experiment: Binding affinity to S1PR2 (unknown origin) measured by surface plasmon resonance assay; details: filed as antagonist
[27] = Downregulation of human S1PR2 expression in human SW620/5-FU cells at 0.16 to 2.5 uM cells measured by western blot assay; assay type: ADME, cell-based; details: dose 0.16-2.5 µM
[28] = target: T1, Sphingosine 1-phosphate receptor 2; experiment: Antagonist activity at S1PR2 in human SW620/5-FU cells assessed as reduction of DPD-catalyzed 5-FU degradation by measuring intracellular FBAL level at 2 uM measured after 6 hrs by HPLC-UV analysis; assay type: functional, cell-based; details: filed as antagonist
[29] = Initial plasma concentration in Sprague-Dawley rat at 1 mg/kg, iv by LC-MS/MS analysis; assay type: ADME, organism-based
[30] = AUC (0 to infinity) in Sprague-Dawley rat blood at 1 mg/kg, iv by LC-MS/MS analysis; assay type: ADME, organism-based; parameters: route intravenous, time infinity, dose 1 mg/kg
[31] = Initial drug concentration in Sprague-Dawley rat blood at 1 mg/kg, iv by LC-MS/MS analysis; assay type: ADME, organism-based
[32] = Clearance in Sprague-Dawley rat blood at 1 mg/kg, iv measured for 24 hrs by LC-MS/MS analysis; assay type: ADME, organism-based
[33] = Mean residence time (0 to infinity) in Sprague-Dawley rat blood at 1 mg/kg, iv by LC-MS/MS analysis; assay type: ADME, organism-based
[34] = Reversal of 5-FU resistance against human SW620/5-FU cells assessed as inhibition of cell proliferation measured after 72 hrs in presence of 5-FU by MTT assay; assay type: functional, cell-based
[35] = AUC (0 to infinity) in Sprague-Dawley rat plasma at 1 mg/kg, iv by LC-MS/MS analysis; assay type: ADME, organism-based; parameters: time infinity, route intravenous, dose 1 mg/kg
[36] = Stability in mouse liver microsomes assessed as parent compound remaining at 2 umol/L measured after 60 mins in presence of NADPH regenerating system by LC-MS/MS analysis; assay type: ADME, Microsome; details: dose 2 µmol/L, read-out: Stabilty
[37] = Toxicity in athymic nude mouse xenografted with human SW620/5-FU cells assessed as changes in body weight at 1.08 mg/kg/day, iv administered for 24 days in presence of 5-FU and measured for every 4 days; assay type: organism-based; details: in vivo, 576 h, time 24 day
[38] = Mean residence time (0 to t) in Sprague-Dawley rat plasma at 1 mg/kg, iv measured for 24 hrs by LC-MS/MS analysis; assay type: ADME, organism-based
Mus musculus [39] = experiment: Downregulation of DPD expression in tumour of athymic nude mouse xenografted with human SW620/5-FU at 1.08 mg/kg/day, iv administered for 24 days in presence of 5-FU and measured on day 24 by immunohistochemistry; assay type: functional, organism-based; details: time 24.0 day
Mus musculus [40] = experiment: Downregulation of DPD expression in tumour of athymic nude mouse xenografted with human SW620/5-FU at 1.08 mg/kg/day, iv administered for 24 days in presence of 5-FU and measured on day 24 by Western blot assay; assay type: functional, organism-based; details: time 24.0 day

T1 sequence (O95136 whole entry): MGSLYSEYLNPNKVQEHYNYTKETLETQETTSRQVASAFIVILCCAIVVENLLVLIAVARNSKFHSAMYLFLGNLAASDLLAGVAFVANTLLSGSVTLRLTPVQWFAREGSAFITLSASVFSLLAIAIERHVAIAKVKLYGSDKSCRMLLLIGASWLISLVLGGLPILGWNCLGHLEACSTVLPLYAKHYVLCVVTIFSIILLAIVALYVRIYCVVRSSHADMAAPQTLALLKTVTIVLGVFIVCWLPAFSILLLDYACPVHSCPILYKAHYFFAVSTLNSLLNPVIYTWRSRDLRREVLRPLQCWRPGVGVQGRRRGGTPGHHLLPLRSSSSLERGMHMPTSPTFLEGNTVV

O=C(Nc1cc(Cl)nc(Cl)c1)Nc1cc(Cl)nc(Cl)c1
inhibition in vivo at 1.08 mg/kg/day (SW620/5-FU): 7.5%
inhibition (Mus musculus [1]): Active
inhibition [2]: Active
inhibition [3]: Active
inhibition [4]: Dose-Dependent Effect
Activity [5]: Non-Toxic
inhibition [6]: Dose-Dependent Effect
Dissociation rate constant (koff) [7]: 6.97 10^-1/s
Activity [8]: Non-Toxic
inhibition in vivo at 1.08 mg/kg/day [9]: 66.2%
inhibition (Mus musculus [10]): Active
half-life [11]: 4.4 h
Vd [12]: 3.3 L/kg
remaining at 1 h, 2 µM [13]: 95.2%
Activity [14]: 10 mg/L
AUC(0-t) at 24 h [15]: 3840 ng·h/mL
inhibition [16]: Active
half-life [17]: 4.7 h
Ka [18]: 5.28 10^6/M/s
inhibition (Mus musculus [19]): Active
EC50 (NCM460): 9440 nM
MRT last at 24 h [20]: 6 h
MRT inf [21]: 7 h
EC50 (HCT-116): 180 nM
AUC(0-t) at 24 h [22]: 1890 ng·h/mL
blood plasma ratio at 24 h [23]: 0.484
clearance [24]: 4.17 mL/min/kg
Vd [25]: 1.7 L/kg
K [26]: 1.32 10^-8M
Activity [27]: Non-Toxic
Activity [28]: 0.17 mg/L
C0 [29]: 1110 ng/mL
AUC(0-inf) [30]: 1950 ng·h/mL
C0 [31]: 489 ng/mL
clearance [32]: 8.5 mL/min/kg
MRT inf [33]: 6.7 h
EC50 [34]: 210 nM
AUC(0-inf) [35]: 3960 ng·h/mL
remaining at 1 h, 2 µM [36]: 97.9%
Activity [37]: Non-Toxic
MRT last at 24 h [38]: 6.2 h
inhibition (Mus musculus [39]): Active
inhibition (Mus musculus [40]): Active
